Measured values taken from US10738083B2, “Influenza virus neutralizing peptidomimetic compounds” (Janssen Vaccines & Prevention B.V., priority 2015, dated 2020).
pIC50, pKd: −log10 of the molar value. *1 amine or outer side, *2 acyl side, *3 side chain or, on linkers, in order; H or OH if unused. Where a SMILES comes first, the peptide text is derived from it. Bridges are numbered along the chain shown (N, C = ends). [ ]: non-standard residue; d: D form. Phe(3,4-Cl2) = N[C@@H](Cc1ccc(Cl)c(Cl)c1)C(=O)O; X2 = O=C(CN(CC(=O)[*:2])CC(=O)[*:3])[*:1]; X1 = NCCC(=O)N[C@@H](CN[*:2])C(=O)[*:1]; Ala(cPent) = N[C@@H](CC1CCCC1)C(=O)O; Glutaryl = O=C(CCCC(=O)[*:2])[*:1]; hhPhe = N[C@@H](CCCc1ccccc1)C(=O)O; NMeL = CN[C@@H](CC(C)C)C(=O)O; Orn = NCCC[C@H](N)C(=O)O; βAla = NCCC(=O)O

Tests used:
[1] = target: H1 HA A/New Caledonia/20/1999 (Influenza A virus, UniProt Q6WG00); experiment: AlphaLISA binding competition, HA + stem-binder
Description: (§1) Binding competition studies were designed to test compounds for competition with other well characterized HA binding proteins (including e.g. CR9114) with known epitopes on HA. The epitopes where either located at the stem of the HA (viral membrane proximal part of HA) or, for control purposes, at the head of HA (viral membrane distal part of HA). If competition was observed, it is assumed that both molecules bind to a similar or at least overlapping epitope at the surface of HA. Competition with a HA head- and stem-binder was interpreted as unspecific binding.
(§2) Hereto an AlphaLISA competition assay (Perkin Elmer) was established which relied on biotinylated full length and trimeric HA proteins (Protein Sciences, 10 μL, 0.5 nM final concentration in 50 μL) bound by HA-specific binders. The interaction between HA and the binder was detected after 1 h incubation at room temperature (RT) with two beads, a streptavidin donor bead recognizing HA (10 μL of 10 μg/mL) and an anti Fc bead (10 μg/mL) recognizing the IgGs used. If after an additional hour of incubation at RT the excited donor bead (680 nm) and acceptor bead are in close proximity, an energy transfer (singlet oxygen) can be measured as a luminescence signal of the acceptor bead (Perkin Elmer EnVision plate reader). The signal intensity in this homogeneous assay format is directly proportional to the binding strength (affinity/avidity) between both binding partners.

[2] = target: T1, H1 HA A/California/07/2009 (Influenza A virus, UniProt C3W5X2); experiment: AlphaLISA binding competition, HA + stem-binder
Description: as §1, §2

[3] = target: T1, H1 HA A/California/07/2009; experiment: AlphaLISA binding competition, HA + head-binder (control)
Description: as §1, §2

[4] = target: HA A/Vietnam/1194/04 (H5) (Influenza A virus, UniProt A5A5M5); experiment: biochemical; type: binding; settings: for koff: read-out: dissociation rate kd
[5] = target: HA A/California/07/09 (H1) (Influenza A virus, UniProt C3W5X2); experiment: biochemical; type: binding; settings: for koff: read-out: dissociation rate kd
H1 HA A/Brisbane/59/07 = H1 HA A/Brisbane/59/07 (Influenza A virus, UniProt D5F1Q8); experiment: AlphaLISA binding competition, HA + stem-binder
Description: as §1, §2

[6] = target: HA A/New Caledonia/20/99 (H1) (Influenza A virus, UniProt Q6WG00); experiment: biochemical; type: binding; settings: for koff: read-out: dissociation rate kd

With CC(=O)N[C@@H](CCCNC(=N)N)C(=O)N[C@H]1CCCNC(=O)CN2CC(=O)NCCC[C@@H](C(N)=O)NC(=O)[C@H](CO)NC(=O)[C@H](CC(C)C)NC(=O)[C@H](Cc3c[nH]c4ccccc34)NC(=O)[C@H](CCC(=O)O)NC(=O)[C@H](Cc3ccccc3)NC(=O)[C@H](Cc3ccc(O)cc3)NC(=O)[C@H](CCCNC(=O)C2)NC(=O)[C@H](CC(C)C)NC1=O [CP141032] (Ac-R[Orn]L[Orn]YFEWLS[Orn]-NH2; linker 2-4-11 via X2) the pIC50 [1] was 5.65, the pIC50 [2] was 5.02 and the pIC50 [3] was under 4.30.

CC(=O)N[C@@H](CCCc1ccccc1)C(=O)N[C@H]1CCCNC(=O)CCNC(=O)[C@H](CO)NC(=O)[C@H](CC(C)C)NC(=O)[C@H](Cc2c[nH]c3ccccc23)NC(=O)[C@H](CCC(=O)O)NC(=O)[C@H](Cc2ccccc2)NC(=O)[C@H](Cc2ccc(O)cc2)NC(=O)[C@H](CCCNC(=N)N)NC(=O)[C@H](CC(C)C)NC1=O [CP132070] (Ac-[hhPhe][Orn]LRYFEWLS[βAla]; lactam 2-C) gave a pIC50 [1] of 6.75, a pIC50 [2] of 6.54 and a pIC50 [3] of under 4.30.

CC(=O)N[C@@H](CCCc1ccccc1)C(=O)N[C@H]1CCCNC(=O)CCNC(=O)[C@H](CO)NC(=O)[C@H](CC(C)C)NC(=O)[C@H](Cc2c[nH]c3ccccc23)NC(=O)[C@H](CCC(=O)O)NC(=O)[C@H](Cc2ccc(Cl)c(Cl)c2)NC(=O)[C@H](Cc2ccc(O)cc2)NC(=O)[C@H](CCC(=O)O)NC(=O)[C@H](CC(C)C)NC1=O [CP141019] (Ac-[hhPhe][Orn]LEY[Phe(3,4-Cl2)]EWLS[βAla]; lactam 2-C) was tested, and the pKd [4] was 7.50, the koff [4] was 0.0533 s⁻¹ and the pKd [5] was 7.77. The koff [5] was 0.182 s⁻¹, the pIC50 (H1 HA A/Brisbane/59/07) was 7.33 and the pIC50 [1] was 7.30. It also gave a pIC50 [2] of 7.15, a pIC50 [3] of under 4.30 and a pKd [6] of 7.75. For the same compound, the koff [6] was 0.0589 s⁻¹.

In the case of CC(=O)N[C@@H](CCCc1ccccc1)C(=O)N[C@H]1CCCNC(=O)CCNC(=O)[C@H](CO)NC(=O)[C@H](CC(C)C)NC(=O)[C@H](Cc2c[nH]c3ccccc23)NC(=O)[C@H](CCC(=O)O)NC(=O)[C@H](Cc2ccccc2)NC(=O)[C@H](Cc2ccc(O)cc2)NC(=O)[C@H](CCCCNC(=O)CCCC(=O)O)NC(=O)[C@H](CC(C)C)NC1=O [CP141066] (Ac-[hhPhe][Orn]LK(Glutaryl)YFEWLS[βAla]; lactam 2-C), the pIC50 [1] was 6.73, the pIC50 [2] was 6.61 and the pIC50 [3] was under 4.30.

Compound CC(=O)N[C@@H](CCCc1ccccc1)C(=O)N[C@H]1CCCNC(=O)[C@@H](NC(=O)CCN)CNC(=O)[C@H](CO)NC(=O)[C@H](CC(C)C)NC(=O)[C@H](Cc2c[nH]c3ccccc23)NC(=O)[C@H](CCC(=O)O)NC(=O)[C@H](Cc2ccccc2)NC(=O)[C@H](Cc2ccc(O)cc2)NC(=O)[C@H](CCC(=O)O)NC(=O)[C@H](CC(C)C)NC1=O [CP141099] (Ac-[hhPhe][Orn]LEYFEWLS; linker 2-C via X1) has a pKd [4] of 7.56, a koff [4] of 0.0652 s⁻¹ and a pKd [5] of 7.58. The koff [5] was 0.252 s⁻¹, the pIC50 (H1 HA A/Brisbane/59/07) was 7.17 and the pIC50 [1] was 7.56. It also gave a pIC50 [2] of 7.23, a pIC50 [3] of under 4.30 and a pKd [6] of 7.60. For the same compound, the koff [6] was 0.101 s⁻¹.

Compound CC(=O)N[C@@H](CCCc1ccccc1)C(=O)N[C@H]1CCCNC(=O)CCNC(=O)[C@H](CO)NC(=O)[C@H](CC(C)C)NC(=O)[C@H](Cc2c[nH]c3ccccc23)NC(=O)[C@H](CCC(=O)O)NC(=O)[C@H](Cc2ccccc2)NC(=O)[C@H](Cc2ccc(O)cc2)NC(=O)[C@H](CCC(=O)O)NC(=O)[C@H](CC(C)C)N(C)C1=O [CP141037] (Ac-[hhPhe][Orn][NMeL]EYFEWLS[βAla]; lactam 2-C) has a pKd [4] of 7.19, a koff [4] of 0.0845 s⁻¹ and a pKd [5] of 7.21. It also gave a koff [5] of 0.184 s⁻¹, a pIC50 (H1 HA A/Brisbane/59/07) of 7.06 and a pIC50 [1] of 7.09. It also gave a pIC50 [2] of 6.69, a pIC50 [3] of under 4.30 and a pKd [6] of 7.35. The koff [6] was 0.0753 s⁻¹.

CC(=O)N[C@@H](CCCc1ccccc1)C(=O)N[C@H]1CCCNC(=O)CCNC(=O)[C@H](CO)NC(=O)[C@H](CC(C)C)NC(=O)[C@H](Cc2c[nH]c3ccccc23)NC(=O)[C@H](CCC(=O)O)NC(=O)[C@H](Cc2ccccc2)NC(=O)[C@H](Cc2ccc(O)cc2)NC(=O)[C@H](CCC(=O)O)NC(=O)[C@H](CC2CCCC2)NC1=O [CP141036] (Ac-[hhPhe][Orn][Ala(cPent)]EYFEWLS[βAla]; lactam 2-C) was tested, and the pIC50 (H1 HA A/Brisbane/59/07) was 6.84, the pIC50 [1] was 6.87 and the pIC50 [2] was 6.40. The pIC50 [3] was under 4.30.
